Key:
TNFα [1] = test: Inhibition of TNFα in vitro, LPS/interferon-γ treated mouse peritoneal macrophages, Luminex; type: cell-based; details: Peritoneal macrophage, 50 ng/mL LPS and 10 U/mL interferon-γ, 18 hours, read-out: IC50, suppression of TNFα in vitro
Protocol: 1 mL thioglycolate broth (5.0 g yeast extract, 15.0 g casitone or trypticase, 5.0 g dextrose, 2.5 g sodium chloride, 0.75 g L-cystine, 0.5 g sodium thioglycolate, 1.0 mg resazurin, and 0.75 g agar in 1.0 L distilled water) are injected into the peritoneal cavity of Balb/C female mice. At day 4 or 5 post-injection the mice are sacrificed and then injected i.p. with 4 mL RPMI-1640 medium (BioWhittaker) and the peritoneal macrophages are withdrawn by syringe.
Mouse peritoneal macrophages are counted with a hemocytometer and adjusted to 5×10^5 cells/well in 96-well plates in RPMI-1640 medium with 10% fetal bovine serum. 200 μL/well is plated in 96-well plates and the cells allowed to settle and adhere to the bottom of the well for at least 3 hours. The test compound or standard p38 kinase inhibitor is pre-treated using a series of 8 concentrations for 1 hour at 37° C. […]
50 μL of cytokine detection antibody is added and incubated for 60 seconds at room temperature on a shaker protected from light at setting 6 and then for 30 minutes at setting 3.3 washes are performed with the Bio-Plex Wash Buffer. […] Standards and samples are read on a Luminex machine. These intensity readings are then converted to picogram/milliliter units based on a 12-point standard curve created in duplicate using a four-parameter logistic regression method (Bio-Plex Manager 2.0, Bio-Rad), and the IC50 calculated. […]

[2] = test system: collagen induced arthritis; test: Rat collagen induced arthritis efficacy model; type: in vivo; details: female Lewis rats, PO, bid for 14 days
Protocol: Female Lewis rats (≈190 g, Charles River Labs) are immunized with Bovine type II collagen (2 mg/mL) emulsified with an equal volume of adjuvant (aluminum hydroxide). are used. The rats are immunized with approximately […] of the emulsion intradermally on the back near the base of the tail. All animals are re-immunized 7 days later according to the same protocol. The rats begin to develop arthritis (characterized by swelling and redness of one or both ankles) from 12 to 14 days after the first immunization. The rats are equally distributed into five treatment groups at the first signs of arthritis and treatment is initiated with each rat dosed bid for 14 days.
Group 1 Vehicle (1% NaCarboxymethylcellulose+0.25% Tween 80) 1 mL, PO,
• Bid×14 days • Group 2 Test compound, 5 mg/kg, 1 mL, PO, Bid×14 • Group 3 Test compound, 15 mg/kg, 1 mL, PO, Bid×14 • Group 4 Test compound, 30 mg/kg, 1 mL, PO, Bid×14 • Group 5 Prednisolone 10 mg/kg, 1 mL, PO, qd×14 Ankle diameter is measured with calipers 5 days a week and recorded. Data is expressed as the area under the curve (AUC) generated from the composite inflammation scores and statistical analysis performed.

TNFα [3] = test: Inhibition of TNFα in vivo, LPS challenged mice, plasma ELISA; details: female Balb/c mice, p.o., LPS IP 400 μg/kg 1 hour after compound, plasma 1.5 hours after LPS
Protocol: Compounds are administered p.o. (30, 10, 3 and 1 mg/kg) to female Balb/c mice (6 mice/dose). 1 hour following compound administration at 4 doses (P.O. at volume of 0.1 mL/mouse; vehicle: 1% NaCMC/0.25% Tween-80 in water); mice are given an IP-injection of LPS at 400 μg/kg. 1.5 hours after LPS challenging, mice are anesthetized with isoflurane and blood is taken via cardiac puncture. TNFα-levels in the plasma are determined using ELISA kit from R&D Systems and dose response ED50 is determined.
The Threshold Minimum Effective Dose (TMED) 50 is the dose at which greater than or equal to 50% inhibition was achieved and statistically different from control/placebo.

Compound: CS(=O)(=O)O.Cc1ccc(-n2nc(C(C)(C)C)cc2NC(=O)Nc2ccc(N3CCN(C(=O)c4c(F)cccc4F)CC3)nc2C)cc1 [Example 5, 1-(5-tert-Butyl-2-p-tolyl-2H-pyrazol-3-yl)-3-{6-[4-(2,6-difluoro-benzoyl)-piperazin-1-yl]-2-methyl-pyridin-3-yl}-urea methanesulfonate]
- IC50 (TNFα [1]): 0.018 µM
- histology TMED 50 [2]: 5 mg/kg bid
- TMED50, suppression of TNFα in vivo (TNFα [3]): 2.24 mg/kg
